Literature values as cited in US20090022788A1, “DIETARY SUPPLEMENT FOR HEALING OR REGRESSING SYMPTOMS OF GASTROESOPHAGEAL REFLUX DISEASE, GASTRITIS AND ULCERS” (priority 2006, published 2009).

System: spontaneous gastric ulcers
Settings: young pigs, 4-week administration in the diet

COc1ccc2[nH]cc(CCNC(C)=O)c2c1 [melatonin, N-Acetyl-5-methoxytryptamine]
incidence of spontaneous gastric ulcers: significantly reduced
